Laboratory results published in patent US9023789B2, “Amylin analogs and pharmaceutical compositions thereof” (Novo Nordisk A/S, priority 2012, dated 2015).
Numbered stars: 1 amine (or outer) side, 2 acyl side, 3 side chain; on linkers, the order of the positions; unused ones are H or OH. Bridge positions count the residues as written; N and C are the ends. Side chains are listed from the residue outwards. Peptide text beside a SMILES is read from it. * marks the point of attachment. C20 diacid = O=C(O)CCCCCCCCCCCCCCCCCCC(=O)*; γGlu = O=C(O)[C@H](CCC(=O)[*:2])N[*:1]

Assay: ASSAY (III) ThT fibrillation assay for physical stability
Type: physicochemical
Procedure, shortened: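 Physical stability scored by ThT fluorescence (444 nm excitation, 485 nm emission) tracked every 20 min during 37 °C incubation with 960 rpm shaking, ThT at 1 μM final. Values are replicate means with SD at chosen times; HPLC against pramlintide standard gives initial and post-assay soluble concentrations.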

Row | ThT pH 4.0 lag time (h) | Compound
1 | 26 | CC[C@H](C)[C@H](NC(=O)[C@H](C)NC(=O)CNC(=O)[C@H](Cc1ccccc1)NC(=O)[C@H](CC(N)=O)NC(=O)[C@@H]1CCCN1C(=O)[C@H](CO)NC(=O)[C@H](CO)NC(=O)[C@H](Cc1c[nH]cn1)NC(=O)[C@H](CCCNC(=N)N)NC(=O)[C@H](CC(C)C)NC(=O)[C@H](Cc1ccccc1)NC(=O)[C@H](Cc1c[nH]cn1)NC(=O)[C@H](C)NC(=O)[C@H](CC(C)C)NC(=O)[C@H](CCCNC(=N)N)NC(=O)[C@H](CCC(N)=O)NC(=O)[C@@H](NC(=O)[C@H](C)NC(=O)[C@@H]1CSSC[C@H](NC(=O)[C@H](CCCNC(=N)N)NC(=O)CNC(=O)CC[C@H](NC(=O)CCCCCCCCCCCCCCCCCCC(=O)O)C(=O)O)C(=O)N[C@@H](CC(N)=O)C(=O)N[C@@H]([C@@H](C)O)C(=O)N[C@@H](C)C(=O)N[C@@H]([C@@H](C)O)C(=O)N1)[C@@H](C)O)C(=O)N1CCC[C@H]1C(=O)N[C@@H](CO)C(=O)N[C@@H](CO)C(=O)N[C@H](C(=O)N[C@@H](CC(N)=O)C(=O)N[C@H](C(=O)NCC(=O)N1CCC[C@H]1C(=O)N[C@@H](CC(N)=O)C(=O)N[C@H](C(=O)N[C@@H](Cc1ccc(O)cc1)C(N)=O)[C@@H](C)O)C(C)C)[C@@H](C)O [Example 102] ({C20 diacid-γGlu}-GRCNTATCATQRLAHFLRHSSPNFGAIPSSTNVGPNTY-NH2; disulfide 3-8 (inferred))
2 | 45 | CC[C@H](C)[C@H](NC(=O)[C@H](C)NC(=O)CNC(=O)[C@H](Cc1ccccc1)NC(=O)[C@H](CC(N)=O)NC(=O)[C@@H]1CCCN1C(=O)[C@H](CO)NC(=O)[C@H](CO)NC(=O)[C@H](Cc1c[nH]cn1)NC(=O)[C@H](CCCNC(=N)N)NC(=O)[C@H](CC(C)C)NC(=O)[C@H](Cc1ccccc1)NC(=O)[C@H](Cc1c[nH]cn1)NC(=O)[C@H](C)NC(=O)[C@H](CC(C)C)NC(=O)[C@H](CCCNC(=N)N)NC(=O)[C@H](CCC(N)=O)NC(=O)[C@@H](NC(=O)[C@H](C)NC(=O)[C@@H]1CSSC[C@H](NC(=O)[C@@H](N)CCCCNC(=O)CC[C@H](NC(=O)CCCCCCCCCCCCCCCCCCC(=O)O)C(=O)O)C(=O)N[C@@H](CC(N)=O)C(=O)N[C@@H]([C@@H](C)O)C(=O)N[C@@H](C)C(=O)N[C@@H]([C@@H](C)O)C(=O)N1)[C@@H](C)O)C(=O)N1CCC[C@H]1C(=O)N[C@@H](CO)C(=O)N[C@@H](CO)C(=O)N[C@H](C(=O)N1CCC[C@H]1C(=O)N[C@H](C(=O)NCC(=O)N1CCC[C@H]1C(=O)N[C@@H](CC(N)=O)C(=O)N[C@H](C(=O)N[C@@H](Cc1ccc(O)cc1)C(N)=O)[C@@H](C)O)C(C)C)[C@@H](C)O [Example 116] (H-K([γGlu-C20 diacid])CNTATCATQRLAHFLRHSSPNFGAIPSSTPVGPNTY-NH2; disulfide 2-7)
3 | 2 | CC[C@H](C)[C@H](NC(=O)[C@H](C)NC(=O)CNC(=O)[C@H](Cc1ccccc1)NC(=O)[C@H](CC(N)=O)NC(=O)[C@@H]1CCCN1C(=O)[C@H](CO)NC(=O)[C@H](CO)NC(=O)[C@H](Cc1c[nH]cn1)NC(=O)[C@H](CCCNC(=N)N)NC(=O)[C@H](CC(C)C)NC(=O)[C@H](Cc1ccccc1)NC(=O)[C@H](CC(N)=O)NC(=O)[C@H](C)NC(=O)[C@H](CC(C)C)NC(=O)[C@H](CCCNC(=N)N)NC(=O)[C@H](CCC(N)=O)NC(=O)[C@@H](NC(=O)[C@H](C)NC(=O)[C@@H]1CSSC[C@H](NC(=O)[C@@H](N)CCCCNC(=O)COCCOCCNC(=O)COCCOCCNC(=O)CC[C@H](NC(=O)CCCCCCCCCCCCCCCCCCC(=O)O)C(=O)O)C(=O)N[C@@H](CC(N)=O)C(=O)N[C@@H]([C@@H](C)O)C(=O)N[C@@H](C)C(=O)N[C@@H]([C@@H](C)O)C(=O)N1)[C@@H](C)O)C(=O)N1CCC[C@H]1C(=O)N[C@@H](CO)C(=O)N[C@@H](CO)C(=O)N[C@H](C(=O)N[C@@H](CC(N)=O)C(=O)N[C@H](C(=O)NCC(=O)N[C@@H](CO)C(=O)N[C@@H](CCC(=O)O)C(=O)N[C@H](C(=O)N[C@@H](Cc1ccc(O)cc1)C(N)=O)[C@@H](C)O)C(C)C)[C@@H](C)O [Example 25]
4 | 23 | CC[C@H](C)[C@H](NC(=O)[C@H](C)NC(=O)CNC(=O)[C@H](Cc1ccccc1)NC(=O)[C@H](CC(N)=O)NC(=O)[C@@H]1CCCN1C(=O)[C@H](CO)NC(=O)[C@H](CO)NC(=O)[C@H](Cc1c[nH]cn1)NC(=O)[C@H](CCCNC(=N)N)NC(=O)[C@H](CC(C)C)NC(=O)[C@H](Cc1ccccc1)NC(=O)[C@H](CCC(=O)O)NC(=O)[C@H](C)NC(=O)[C@H](CC(C)C)NC(=O)[C@H](CCCNC(=N)N)NC(=O)[C@H](CCC(N)=O)NC(=O)[C@@H](NC(=O)[C@H](C)NC(=O)[C@@H]1CSSC[C@H](NC(=O)[C@@H](N)CCCCNC(=O)CC[C@H](NC(=O)CC[C@H](NC(=O)CCCCCCCCCCCCCCCCCCC(=O)O)C(=O)O)C(=O)O)C(=O)N[C@@H](CC(N)=O)C(=O)N[C@@H]([C@@H](C)O)C(=O)N[C@@H](C)C(=O)N[C@@H]([C@@H](C)O)C(=O)N1)[C@@H](C)O)C(=O)N1CCC[C@H]1C(=O)N[C@@H](CO)C(=O)N[C@@H](CO)C(=O)N[C@H](C(=O)N[C@@H](CC(N)=O)C(=O)N[C@H](C(=O)NCC(=O)N1CCC[C@H]1C(=O)N[C@@H](CCC(=O)O)C(=O)N[C@H](C(=O)N1CCC[C@H]1C(N)=O)[C@@H](C)O)C(C)C)[C@@H](C)O [Example 125] (H-K([γGlu-γGlu-C20 diacid])CNTATCATQRLAEFLRHSSPNFGAIPSSTNVGPETP-NH2; disulfide 2-7 (inferred); N-terminus assumed)
5 | 30 | CC[C@H](C)[C@H](NC(=O)[C@H](C)NC(=O)CNC(=O)[C@H](Cc1ccccc1)NC(=O)[C@H](CC(N)=O)NC(=O)[C@@H]1CCCN1C(=O)[C@H](CO)NC(=O)[C@H](CO)NC(=O)[C@H](Cc1c[nH]cn1)NC(=O)[C@H](CCCNC(=N)N)NC(=O)[C@H](CC(C)C)NC(=O)[C@H](Cc1ccccc1)NC(=O)[C@H](CC(N)=O)NC(=O)[C@H](C)NC(=O)[C@H](CC(C)C)NC(=O)[C@H](CCCNC(=N)N)NC(=O)[C@H](CCC(N)=O)NC(=O)[C@@H](NC(=O)[C@H](C)NC(=O)[C@@H]1CSSC[C@H](NC(=O)[C@@H](N)CCCCNC(=O)CC[C@H](NC(=O)CCCCCCCCCCCCC(=O)O)C(=O)O)C(=O)N[C@@H](CC(N)=O)C(=O)N[C@@H]([C@@H](C)O)C(=O)N[C@@H](C)C(=O)N[C@@H]([C@@H](C)O)C(=O)N1)[C@@H](C)O)C(=O)N1CCC[C@H]1C(=O)N[C@@H](CO)C(=O)N[C@@H](CO)C(=O)N[C@H](C(=O)N[C@@H](CC(N)=O)C(=O)N[C@H](C(=O)NCC(=O)N[C@@H](Cc1c[nH]cn1)C(=O)N[C@@H](CC(N)=O)C(=O)N[C@H](C(=O)N[C@@H](Cc1ccc(O)cc1)C(N)=O)[C@@H](C)O)C(C)C)[C@@H](C)O [Example 112]
6 | 45 | CC[C@H](C)[C@H](NC(=O)[C@H](C)NC(=O)CNC(=O)[C@H](Cc1ccccc1)NC(=O)[C@H](CC(N)=O)NC(=O)[C@@H]1CCCN1C(=O)[C@H](CO)NC(=O)[C@H](CO)NC(=O)[C@H](Cc1c[nH]cn1)NC(=O)[C@H](CCCNC(=N)N)NC(=O)[C@H](CC(C)C)NC(=O)[C@H](Cc1ccccc1)NC(=O)[C@H](CCC(=O)O)NC(=O)[C@H](C)NC(=O)[C@H](CC(C)C)NC(=O)[C@H](CCCNC(=N)N)NC(=O)[C@H](CCC(N)=O)NC(=O)[C@@H](NC(=O)[C@H](C)NC(=O)[C@@H]1CSSC[C@H](NC(=O)[C@H](CCCCN)NC(=O)CC[C@H](NC(=O)CCCCCCCCCCCCCCCCCCC(=O)O)C(=O)O)C(=O)N[C@@H](CC(N)=O)C(=O)N[C@@H]([C@@H](C)O)C(=O)N[C@@H](C)C(=O)N[C@@H]([C@@H](C)O)C(=O)N1)[C@@H](C)O)C(=O)N1CCC[C@H]1C(=O)N[C@@H](CO)C(=O)N[C@@H](CO)C(=O)N[C@H](C(=O)N[C@@H](CC(N)=O)C(=O)N[C@H](C(=O)NCC(=O)N[C@@H](CO)C(=O)N[C@@H](CCCNC(=N)N)C(=O)N[C@H](C(=O)N[C@@H](Cc1ccc(O)cc1)C(N)=O)[C@@H](C)O)C(C)C)[C@@H](C)O [Example 16] ({C20 diacid-γGlu}-KCNTATCATQRLAEFLRHSSPNFGAIPSSTNVGSRTY-NH2; disulfide 2-7)
7 | 45 | CC[C@H](C)[C@H](NC(=O)[C@H](C)NC(=O)CNC(=O)[C@H](Cc1ccccc1)NC(=O)[C@H](CC(N)=O)NC(=O)[C@@H]1CCCN1C(=O)[C@H](CO)NC(=O)[C@H](CO)NC(=O)[C@H](Cc1c[nH]cn1)NC(=O)[C@H](CCCNC(=N)N)NC(=O)[C@H](CC(C)C)NC(=O)[C@H](Cc1ccccc1)NC(=O)[C@H](CCC(=O)O)NC(=O)[C@H](C)NC(=O)[C@H](CC(C)C)NC(=O)[C@H](CCCNC(=N)N)NC(=O)[C@H](CCC(N)=O)NC(=O)[C@@H](NC(=O)[C@H](C)NC(=O)[C@@H]1CSSC[C@H](NC(=O)[C@@H](N)CCCCNC(=O)CC[C@H](NC(=O)CCCCCCCCCCCCCCCCCCC(=O)O)C(=O)O)C(=O)N[C@@H](CC(N)=O)C(=O)N[C@@H]([C@@H](C)O)C(=O)N[C@@H](C)C(=O)N[C@@H]([C@@H](C)O)C(=O)N1)[C@@H](C)O)C(=O)N1CCC[C@H]1C(=O)N[C@@H](CO)C(=O)N[C@@H](CO)C(=O)N[C@H](C(=O)N[C@@H](CC(N)=O)C(=O)N[C@H](C(=O)NCC(=O)N[C@@H](CO)C(=O)N[C@@H](CC(N)=O)C(=O)N[C@H](C(=O)N1CCC[C@H]1C(N)=O)[C@@H](C)O)C(C)C)[C@@H](C)O [Example 12] (H-K([γGlu-C20 diacid])CNTATCATQRLAEFLRHSSPNFGAIPSSTNVGSNTP-NH2; disulfide 2-7 (inferred); N-terminus assumed)
